Experimental data reported in patent US20120149026A1, “INSULIN RESISTANCE MARKER” (SHIMADZU CORPORATION, priority 2009, published 2012).

B1: proepithelin protein: epithelin precursor protein having seven kinds of epithelin domains; purchased from AdipoGen, Inc. (protein)
chain: MWTLVSWVALTAGLVAGTRCPDGQFCPVACCLDPGGASYSCCRPLLDKWPTTLSRHLGGPCQVDAHCSAGHSCIFTVSGTSSCCPFPEAVACGDGHHCCPRGFHCSADGRSCFQRSGNNSVGAIQCPDSQFECPDFSTCCVMVDGSWGCCPMPQASCCEDRVHCCPHGAFCDLVHTRCITPTGTHPLAKKLPAQRTNRAVALSSSVMCPDARSRCPDGSTCCELPSGKYGCCPMPNATCCSDHLHCCPQDTVCDLIQSKCLSKENATTDLLTKLPAHTVGDVKCDMEVSCPDGYTCCRLQSGAWGCCPFTQAVCCEDHIHCCPAGFTCDTQKGTCEQGPHQVPWMEKAPAHLSLPDPQALKRDVPCDNVSSCPSSDTCCQLTSGEWGCCPIPEAVCCSDHQHCCPQGYTCVAEGQCQRGSEIVAGLEKMPARRASLSHPRDIGCDQHTSCPVGQTCCPSLGGSWACCQLPHAVCCEDRQHCCPAGYTCNVKARSCEKEVVSAQPATFLARSPHVGVKDVECGEGHFCHDNQTCCRDNRQGWACCPYRQGVCCADRRHCCPAGFRCAARGTKCLRREAPRWDAPLRDPALRQLL
modifications: human

Legend:
Type in all cases: cell-based, mouse
[1] = system: proepithelin protein; assay: Analysis of proepithelin protein by Western blotting in insulin resistance-induced adipocytes; details: matured 3T3-L1 adipocytes; for expression amount of proepithelin protein relative to GADPH, increase versus control: 4 ng/mL TNFα for four days or 20 nM dexamethazone for eight days, p-value <0.05
Experimental: Using the matured adipocyte at the eighth or later day after the differentiation inducing treatment, the cells were cultured in an adipocyte maintenance medium added with 20 nM dexamethazone for eight days to induce insulin resistance, and an adipocyte in which insulin resistance was induced by dexamethazone was obtained. On the other hand, using the matured adipocyte at the eighth or later day after the differentiation inducing treatment, the cells were cultured for four days in an adipocyte maintenance medium added with 4 ng/mL TNFα to induce insulin resistance, and an adipocyte in which insulin resistance was induced by TNFα was obtained.
A matured adipocyte in which insulin resistance was induced by the method of Reference Example 2 was solubilized in a TNE buffer (1% (w/w) Nonidet P-40, 150 mM sodium chloride, 20 mM Tris-hydrochloride (pH 7.4), 2 mM EDTA, 10 μg/mL leupeptin, 10 μg/mL aprotinine, 5 mM mercaptoethanol, 1 mM: PMSF, 1 mM Na3VO4, 10 μM sodium molybdate, and 50 mM sodium fluoride), and a protein was extracted. The extracted protein was separated by SDS-polyacrylamide gel electrophoresis (SDS-PAGE), and then transferred to a polyvinylidene fluoride (PVDF) membrane or a nitrocellulose membrane. A goat anti-proepithelin antibody (R&D Systems) was used as a primary antibody, a rabbit anti-goat IgG HRP-labeled antibody (ZYMED) was used as a secondary antibody, and ECL Blotting Detection Reagents (GE Healthcare) were used for detection of an HRP-labeled antibody.
The result obtained in this example (analytical result of a proepithelin protein by the Western blotting method) is shown in FIG. 2. In FIG. 2A, the vertical axis represents a relative value of an expression amount of a proepithelin protein, relative to an expression amount of a house keeping protein GADPH, and for each of a control (Control), the adipocyte in which insulin resistance was induced by TNFα (TNFα), and the adipocyte in which insulin resistance was induced by dexamethazone (Dex), the relative value is shown (mean value±standard deviation (mean±S.D.), n=4, p-value: **<0.05). […]

[2] = system: proepithelin (aa297-309); assay: Expression variation analysis of proepithelin protein by NBS method in insulin resistance-induced adipocytes; details: matured 3T3-L1 adipocytes; 4 ng/mL TNFα for four days or 20 nM dexamethazone for eight days; p-value <0.05
Experimental: Mouse 3T3-L1 cells (ATCC No. CCL-92.1.) were added with Dulbecco's modified Eagle's medium—low glucose (Wako Pure Chemical Industries, Ltd.), 10% bovine serum (GIBCO BRL), and a penicillin/streptomycin solution (GIBCO BRL), and cultured at 37° C. in 5% carbon dioxide.
After reaching confluent, the cells were further cultured for two days. Then the medium was replaced by a differentiation inducing medium. As the differentiation inducing medium, Dulbecco's modified Eagle's medium—high glucose (Wako Pure Chemical Industries, Ltd.) added with 10% fetal bovine serum, a penicillin/streptomycin solution (GIBCO BRL), 0.5 mM 1-methyl-3-isobutylxanthine, 1 μM dexamethazone, and 5 μg/mL insulin was used.
After three days, the medium was replaced by Dulbecco's modified Eagle's medium—high glucose (Wako Pure Chemical Industries, Ltd.), 10% fetal bovine serum, a penicillin/streptomycin solution (GIBCO BRL), and 5 μg/mL insulin, and cultured for two days. […]
For the obtained digests, a treatment was conducted according to the protocol of the NBS labeling kit, and the NBS-labeled peptide was concentrated. […] Comparative quantification analysis between 12C-NBS-labeled peptide and 13C-NBS-labeled peptide was conducted from the results obtained by automatic analysis of MALDI-TOF MS (AXIMA-CFR Plus; SHIMADZU CORPORATION) by using pair peak analyzing software (TWIP). […]

[3] = system: pAkt-Ser473; assay: Effect of proepithelin protein on insulin signaling (Akt phosphorylation, Western blotting); details: matured 3T3-L1 adipocytes; proepithelin 10, 50, 100, 200 nM, cultured for 30 minutes, with or without 100 nM insulin; FIG. 6
Experimental: A matured adipocyte prepared according to the method of Reference Example 1 was added with 100 nM insulin and a proepithelin protein (AdipoGen, Inc.) and cultured for 30 minutes, or added with 100 nM insulin without addition of proepithelin protein and cultured for 30 minutes to prepare an adipocyte (+100 nM Insulin) stimulated by insulin. When the proepithelin protein was added, concentrations of the proepithelin protein were 10 nM, 50 nM, 100 nM, and 200 nM.
The obtained adipocyte stimulated by insulin was solubilized in an RIPA buffer {1% (W/w) Triton X-100, 1% sodium deoxycholate, 0.1% sodium dodecylsulfate, 150 mM sodium chloride, 20 mM Tris-hydrochloride (pH7.4), 2 mM EDTA, 10 μg/mL leupeptin, 10 μg/mL aprotinin, 5 mM mercaptoethanol, 1 mM PMSF, 1 mM Na3VO4, 10 μM sodium molybdate, 50 mM sodium fluoride}, and proteins were extracted.
The extracted proteins were subjected to the Western blotting method. Concretely, following separation by SDS-polyacrylamide gel electrophoresis (SOS-PAGE), the protein was transferred to a polyvinylidene fluoride (PVDF) membrane or a nitrocellulose membrane. […]

[4] = system: phosphorylated Akt; assay: Insulin signaling-suppressing action by constant presence of proepithelin protein (Akt phosphorylation, Western blotting); details: matured 3T3-L1 adipocytes; proepithelin 50, 100, 200 nM for 6 hours, then 100 nM insulin for 30 minutes; FIG. 7
Experimental: A matured adipocyte prepared according to the method of Reference Example 1 was added with a proepithelin protein (AdipoGen, Inc.) and incubated for 6 hours, and then added with 100 nM insulin and cultured for 30 minutes, or added with 100 nM insulin without addition of a proepithelin protein, and cultured for 30 minutes, to prepare an adipocytes stimulated by insulin (+100 nM Insulin). When the proepithelin protein was added, concentrations of the proepithelin protein were set at 50 nM, 100 nM, and 200 nM.
A matured adipocyte prepared according to the method of Reference Example 1 was added with a proepithelin protein (AdipoGen, Inc.) and cultured for 6 hours, or cultured for 30 minutes without addition of both insulin and a proepithelin protein, to prepare an adipocyte not stimulated with insulin (−Insulin). When the proepithelin protein was added, concentrations of the proepithelin protein were set at 50 nM, 100 nM, and 200 nM.
For each of the adipocyte stimulated by insulin (+100 nM Insulin) and the adipocyte not stimulated by insulin (−Insulin) obtained in the manner as described above, protein extraction and Western blotting were conducted in the same manner as in Example 6.

Row | Molecule | expression amount of proepithelin protein relative to GADPH, increase versus control [1] [times] | relative intensity of proepithelin (aa297-309) NBS-labeled peptide, insulin resistance adipocyte relative to normal adipocyte [2] [times] | upregulation of proepithelin protein with varied inducer concentration ([1]; concentrations of TNFα (ng/ml) and dexamethazone (nM) changed, FIG. 3) | phosphorylation level at 473th serine in the Akt protein [3] | phosphorylation level of an Akt protein after preliminary treatment [4]
1 | C[C@@H]1C[C@H]2[C@@H]3CCC4=CC(=O)C=C[C@]4(C)[C@@]3(F)[C@@H](O)C[C@]2(C)[C@@]1(O)C(=O)CO [dexamethazone] | 1.95 | 3.01 |  |  | 
2 | tumor necrosis factor α [TNFα] | 1.83 | 1.66 | dependent on the concentration |  | 
3 | B1 |  |  |  | increased with the concentration of added proepithelin | decreased
